Where two headings read alike, the source gives them in different places.
Experiments:
[1] = test system: heat induced tail flicking latency; experiment: Tail immersion test; format: in vivo; details: mice
Method: Group I: Control, Group II-XV: WE-1 to WE-7 (sample compounds) at dose of 10 mg/kg and 20 mg/kg and Group XVI: Standard. The control (Group I) was given normal saline. Group II-XV received 10 mg/kg and 20 mg/kg of test sample (WE-1 to WE-7).
(§1) The cut-off time was set at 25 s, and the time taken for the mice to flick their tails out of the water was recorded at 30, 60, 90, and 120-min intervals. An increase in the time of tail immersion was compared to the control group to determine the analgesic effect of the tested drugs. The percentage of inhibition was calculated at the time interval showing the highest effect.

[2] = test system: opioid receptors (tail flicking latency); experiment: Assessment of opioid mechanism via tail immersion test with Naloxone; format: in vivo; details: mice; for Latency response 30 min: control 3.14 ± 0.31; for Latency response 60 min: control 3.17 ± 0.41; for Latency response 120 min: control 3.20 ± 0.29; for Latency response 90 min: control 3.31 ± 0.44
Method: as §1
To verify the involvement of the opioid mechanism, following the approach outlined in the published study. […] These derivatives were assessed for their potential opioid activity within the control, sample compounds and standard groups using the tail immersion test.

5-LOX = molecular target: T1, 5-LOX (Homo sapiens, UniProt P09917); experiment: LOX inhibitory assay; format: biochemical
T1 sequence (P09917 1-674): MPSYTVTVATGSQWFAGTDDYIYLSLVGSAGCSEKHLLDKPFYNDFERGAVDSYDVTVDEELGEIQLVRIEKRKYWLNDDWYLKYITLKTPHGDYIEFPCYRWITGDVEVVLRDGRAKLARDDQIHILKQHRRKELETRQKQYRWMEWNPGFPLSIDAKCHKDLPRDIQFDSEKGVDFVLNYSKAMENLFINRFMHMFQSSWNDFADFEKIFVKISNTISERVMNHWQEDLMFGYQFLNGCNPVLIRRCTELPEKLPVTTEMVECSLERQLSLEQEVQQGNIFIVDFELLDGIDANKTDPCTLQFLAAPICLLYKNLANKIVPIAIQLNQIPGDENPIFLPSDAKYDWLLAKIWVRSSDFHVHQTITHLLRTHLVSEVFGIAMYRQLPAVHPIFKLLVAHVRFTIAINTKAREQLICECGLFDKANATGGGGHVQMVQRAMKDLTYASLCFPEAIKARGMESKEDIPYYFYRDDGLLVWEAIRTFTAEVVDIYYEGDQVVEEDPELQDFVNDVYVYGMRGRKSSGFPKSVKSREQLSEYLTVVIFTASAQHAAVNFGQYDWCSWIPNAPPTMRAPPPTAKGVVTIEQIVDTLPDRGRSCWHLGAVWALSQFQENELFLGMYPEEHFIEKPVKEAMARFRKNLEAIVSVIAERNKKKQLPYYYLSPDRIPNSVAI
Method: The assay was performed according to previously reported procedure. […] Enzyme 5-LOX and DCFDA were incubated for 5 min. After the addition of the test compound, it was further incubated for 10 min. By the addition of substrate arachadonic acid and ATP, the reaction was initiated.

COX-2 enzyme = molecular target: T2, COX-2 enzyme (Homo sapiens, UniProt P35354); experiment: COX-2 inhibitory assay; format: biochemical
T2 construct: purchased Sigma Aldrich
T2 sequence (P35354 18-604): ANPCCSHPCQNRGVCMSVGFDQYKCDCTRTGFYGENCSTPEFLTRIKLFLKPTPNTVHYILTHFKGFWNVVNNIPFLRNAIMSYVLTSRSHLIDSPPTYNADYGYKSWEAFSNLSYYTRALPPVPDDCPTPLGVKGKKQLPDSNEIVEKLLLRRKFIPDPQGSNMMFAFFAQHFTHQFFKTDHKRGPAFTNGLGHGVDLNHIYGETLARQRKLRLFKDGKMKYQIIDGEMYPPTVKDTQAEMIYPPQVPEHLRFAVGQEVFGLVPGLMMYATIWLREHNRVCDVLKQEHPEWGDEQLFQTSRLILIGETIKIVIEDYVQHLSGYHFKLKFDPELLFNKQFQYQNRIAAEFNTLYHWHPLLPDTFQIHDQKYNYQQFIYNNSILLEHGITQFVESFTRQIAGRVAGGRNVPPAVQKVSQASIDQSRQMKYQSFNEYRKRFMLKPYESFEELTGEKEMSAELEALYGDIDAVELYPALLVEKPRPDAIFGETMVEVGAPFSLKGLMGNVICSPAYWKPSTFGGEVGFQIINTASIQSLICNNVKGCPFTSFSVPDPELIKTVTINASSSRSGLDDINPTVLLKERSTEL
Method: COX-2 inhibition was measured spectrophotometrically at 550 nm after the formation of oxidized form of tetramethlenephenylenediamine (TMPD). This assay was conducted according to previously reported procedure. […] The reaction contained 10 μL COX-2 enzymes (100 μM in diluted in DMSO), 10 μL haem of 2.2 mM diluted in DMSO, tris buffers (pH. 8, 100 μl) and drug samples according to the above stated procedure. The reaction was started by the addition of freshly prepared TMPD and methanolic arachidonic acid (AA). Celecoxib is used as a reference drug in this assay. After 5 min of incubation at 25–28C, the absorbance was measured at 550 nm and inhibition was calculated.

[3] = test system: acetic acid induced writhing; experiment: Acetic acid induced writhing test; format: in vivo; details: mice
Method: The animals were divided into various groups I-XVI consisting of 8 experimental animals for control, sample compounds (WE-1 to WE-7) and standard. Group I: Control, Group II-XV: WE-1 to WE-7 (sample compounds) at dose of 10 mg/kg and 20 mg/kg and Group XVI: Standard. The control (Group I) was given normal saline. Group II-XV received 10 mg/kg and 20 mg/kg of test sample (WE-1 to WE-7). […] The writhing test, following a previously established method, was conducted to assess the analgesic potential of the aurone derivatives. The mice were orally administered samples compounds (WE-1 to WE-7)and standard (Diclofenac sodium 10 mg/kg) 1 h before intraperitoneal administration 10 ml/kg of 1 % acetic acid. Five minutes after the acetic acid administration, the numbers of writhing episodes were counted for 10 min, and the percentage of inhibition was subsequently calculated.

[4] = test system: formalin induced paw licking; experiment: Formalin induced paw licking test; format: in vivo; details: late phase, mice
Method: The animals were divided into various groups I-XVI consisting of 8 experimental animals for control, sample compounds (WE-1 to WE-7) and standard. Group I: Control, Group II-XV: WE-1 to WE-7 (sample compounds) at dose of 10 mg/kg and 20 mg/kg and Group XVI: Standard. The control (Group I) was given normal saline. Group II-XV received 10 mg/kg and 20 mg/kg of test sample (WE-1 to WE-7). […] The acute peripheral and centrally mediated analgesic activity of aurone derivatives was evaluated using the formalin-induced pain method, as described. Samples compounds (WE-1 to WE-7) and a standard (Indomethacin 10 mg) were orally administered 30 min prior to 20 μl of 1 % formalin injection (prepared in 0.9 % saline) in right hind paw of the mice and immediately placed in a clear box to observe the animal's reaction. Paw licking or biting within 0–5 min indicated Phase 1, while animal reactions observed between 15 and 30 min indicated Phase 2. The number of paw licking or biting events was compared to the control group, and the percentage of inhibition was calculated.

[5] = Table 2, read-out: LOX (IC50 μM)
[6] = as repeated in Table 4, read-out: Human LOX (IC50 μM)

Structure (SMILES) | Latency response 30 min ([2]; 10 mg/kg + Naloxone 2 mg/kg) | Latency response 60 min ([2]; 10 mg/kg + Naloxone 2 mg/kg) | Latency response 120 min ([2]; 10 mg/kg + Naloxone 2 mg/kg) | Latency response 90 min ([2]; 10 mg/kg + Naloxone 2 mg/kg) | IC50 (5-LOX; [5]) | IC50 (5-LOX; [6]) | IC50 (COX-2 enzyme; Table 2) | IC50 (COX-2 enzyme; as repeated in Table 4) | percentage inhibition of paw licking, Phase II ([4]; 20 mg/kg oral) | Latency response 30 min ([2]; 20 mg/kg + Naloxone 2 mg/kg) | Latency response 60 min ([2]; 20 mg/kg + Naloxone 2 mg/kg) | Latency response 120 min ([2]; 20 mg/kg + Naloxone 2 mg/kg) | Latency response 90 min ([2]; 20 mg/kg + Naloxone 2 mg/kg) | further results
CN1CC[C@]23c4c5ccc(O)c4O[C@H]2[C@@H](O)C=C[C@H]3[C@H]1C5 [Morphine, reference compound] |  |  |  |  |  |  |  |  |  |  |  |  |  | percentage inhibition of pain, tail immersion ([1]; 2 mg/kg oral): 85.42%
COc1cccc(C2(O)CCCCC2CN(C)C)c1 (stereo not shown) [Tramadol, reference compound] | 3.53 ± 0.44 | 4.60 ± 0.59 | 3.48 ± 0.44 | 3.70 ± 0.48 |  |  |  |  |  |  |  |  |  | tail flicking latency ([1]; 10 mg/kg, after 90 min, without Naloxone): 17.74 ± 1.33
O=C1C(=Cc2ccccc2)Oc2ccccc21 [WE-1] |  |  |  |  | 1.45 µM | 1.45 µM | 1.27 µM | 1.27 µM |  |  |  |  |  | 
O=C1C(=Cc2ccc(Cl)cc2)Oc2ccccc21 [WE-2] | 3.61 ± 0.41 | 4.11 ± 0.40 | 3.19 ± 0.32 | 4.03 ± 0.41 | 0.86 µM | 0.86 µM | 0.82 µM | 0.82 µM | over 60% | 3.70 ± 0.39 | 4.30 ± 0.51 | 3.80 ± 0.55 | 4.59 ± 0.60 | percent analgesic effect (inhibition of writhing) ([3]; 10 mg/kg oral): 63.44%; percent analgesic effect (inhibition of writhing) ([3]; 20 mg/kg oral): 64.94%
COc1ccc(C=C2Oc3ccccc3C2=O)cc1 [WE-3] | 3.66 ± 0.41 | 4.60 ± 0.49 | 4.01 ± 0.61 | 4.71 ± 0.66 | 0.52 µM | 0.52 µM | 0.47 µM | 0.47 µM | over 60% | 3.35 ± 0.49 | 4.76 ± 0.51 | 4.15 ± 0.56 | 5.14 ± 0.61 | percentage inhibition of pain, tail immersion ([1]; 20 mg/kg oral, at interval of highest effect): 71.36%
O=C(O)c1ccc(C=C2Oc3ccccc3C2=O)cc1 [WE-5] |  |  |  |  | 1.12 µM | 1.12 µM | 1.21 µM | 1.21 µM |  |  |  |  |  | 
O=Cc1ccc(C=C2Oc3ccccc3C2=O)cc1 [WE-6] |  |  |  |  | 1.17 µM | 1.17 µM | 1.13 µM | 1.13 µM |  |  |  |  |  | 
O=C1C(=Cc2ccc(F)cc2)Oc2ccccc21 [WE-7] | 3.48 ± 0.46 | 4.11 ± 0.48 | 3.40 ± 0.60 | 4.11 ± 0.40 | 0.74 µM | 0.74 µM | 0.63 µM | 0.63 µM | over 60% | 3.50 ± 0.67 | 4.35 ± 0.61 | 3.51 ± 0.66 | 5.01 ± 0.60 | percent analgesic effect (inhibition of writhing) ([3]; 20 mg/kg oral): more than 60%
O=C(O)Cc1ccccc1Nc1c(Cl)cccc1Cl [diclofenac sodium, Diclofenac Sodium, reference compound] |  |  |  |  |  |  |  |  |  |  |  |  |  | percent analgesic effect (inhibition of writhing) ([3]; 10 mg/kg oral): 84.90%; number of writhing ([3]; 10 mg/kg oral, mean ± SEM, control 61.22 ± 3.90): 9.24 ± 1.51
COc1ccc2c(c1)c(CC(=O)O)c(C)n2C(=O)c1ccc(Cl)cc1 [indomethacin, Indomethacin, reference compound] |  |  |  |  |  |  |  |  |  |  |  |  |  | percentage inhibition of paw licking, Phase II ([4]; 10 mg/kg oral): 81.85%
